Assay results published in PMC9316317, “Reducing the Kidney Uptake of High Contrast CXCR4 PET Imaging Agents via Linker Modifications” (Pharmaceutics, 2022).
Where two headings read alike, the source gives them in different places. Where a SMILES comes first, the peptide text is derived from it. Bridges are numbered along the chain shown (N, C = ends). Side-chain parts run from the residue outwards. [ ]: non-standard residue; d: D form. The star is where a group is joined. DOTA = O=C(O)CN1CCN(CC(=O)O)CCN(CC(=O)*)CCN(CC(=O)O)CC1; 2Nal = N[C@@H](Cc1ccc2ccccc2c1)C(=O)O; Lys(iPr) = CC(C)NCCCC[C@H](N)C(=O)O

Legend:
[1] = quoted in discussion, approximate; ammonium salt of N-methylpiperidine; carboxylate in aspartate; no reference given; cited from earlier work
From the text: The placement of three consecutive charged amino acids may increase the pKa of the neighboring carboxylate due to unfavorable electrostatic repulsions. The sulfonate has a lower pKa than a carboxylate (approximately −1.7 versus 1.9 in aspartate), and as such, may be able to better retain its negative charge, thereby increasing the excretion of the radiotracer from the kidneys. However, there was no difference in LogD7.4 values between [^68Ga]Ga-BL02 and [^68Ga]Ga-BL31. The increased capacity to hold a negative cha ...

[2] = tested on: CXCR4-expressing Daudi xenograft mice; conditions: mouse, in vivo, iv
Procedure: (§1) Male NOD.Cg-Rag1tm1Mom Il2rgtm1Wjl/SzJ (NRG) mice were obtained from an in-house breeding colony at the Animal Resource Centre of the BC Cancer Research Centre, Vancouver, Canada. Mice (6–10 weeks old, 25–30 g weight) were subcutaneously inoculated with 5 × 10^6 Daudi cells (100 μL; 1:1 ratio of PBS/Matrigel) on the left flank.
(§2) Additional groups of mice received 7.5 µg (0.25–0.3 mg/kg) LY2510924 as a blocking control i.p. 15 min before radiotracer injection, and euthanized 1 h p.i. Tissues were harvested, washed in PBS, blotted dry, and weighed, and radioactivity was counted on a Hidex AMG Automatic Gamma Counter. The counts were decay corrected, converted to absolute units using a calibration curve, and expressed as percent injected dose per gram of tissue (%ID/g).

in vivo = conditions: male, NOD.Cg-Rag1tm1Mom Il2rgtm1Wjl/SzJ (NRG), mouse, iv, total radioactivity
Procedure: as §1, §2

mCXCR4 = tested on: mCXCR4; design: method as in PMID 29212254; conditions: cited from earlier work

Molecule: N[C@@H](CC(=O)O)C(=O)O [aspartate]
- pKa [1]: ~1.9

Molecule: CC(C)NCCCC[C@@H]1NC(=O)[C@H](Cc2ccc(O)cc2)NC(=O)[C@H](Cc2ccccc2)NC(=O)CC[C@H](C(=O)N[C@@H](CCCCNC(C)C)C(=O)N[C@@H](CCCCNC(=O)[C@H](CCC(=O)O)NC(=O)[C@H](CCC(=O)O)NC(=O)[C@H](CCC(=O)O)NC(=O)CN2CCN(CC(=O)O)CCN(CC(=O)O)CCN(CC(=O)O)CC2)C(N)=O)NC(=O)CNC(=O)[C@H](Cc2ccc3ccccc3c2)NC(=O)[C@@H](CCCNC(=N)N)NC1=O [[68Ga]Ga-BL02, metal not drawn] (FY[Lys(iPr)][dR][2Nal]G[dE][Lys(iPr)]K([Glu-Glu-Glu-DOTA])-NH2; lactam N-7 (inferred); C-terminus assumed)
- Blood uptake ([2]; 1 h): 0.27 ± 0.06 %ID/g
- Liver uptake ([2]; 1 h): 0.57 ± 0.07 %ID/g
- Lung uptake ([2]; 1 h): 0.45 ± 0.08 %ID/g
- Spleen uptake ([2]; 1 h): 0.47 ± 0.22 %ID/g
- Kidney uptake ([2]; 2 h): 3.40 ± 0.51 %ID/g
- Liver uptake ([2]; 2 h): 0.54 ± 0.04 %ID/g
- Lung uptake ([2]; 2 h): 0.27 ± 0.09 %ID/g
- tissue uptake at 1 h (in vivo; Kidney uptake): 3.81 ± 0.86 %ID/g

Molecule: CC(C)NCCCC[C@@H]1NC(=O)[C@H](Cc2ccc(O)cc2)NC(=O)[C@H](Cc2ccccc2)NC(=O)CC[C@H](C(=O)N[C@@H](CCCCNC(C)C)C(=O)N[C@@H](CCCCNC(=O)[C@@H](CCC(=O)O)NC(=O)[C@@H](CCC(=O)O)NC(=O)[C@@H](CCC(=O)O)NC(=O)CN2CCN(CC(=O)O)CCN(CC(=O)O)CCN(CC(=O)O)CC2)C(N)=O)NC(=O)CNC(=O)[C@H](Cc2ccc3ccccc3c2)NC(=O)[C@@H](CCCNC(=N)N)NC1=O [[68Ga]Ga-BL20, metal not drawn] (FY[Lys(iPr)][dR][2Nal]G[dE][Lys(iPr)]K([dE-dE-dE-DOTA])-NH2; lactam N-7)
- tissue uptake at 1 h (in vivo; Tumor uptake (Daudi xenograft)): 0.59 %ID/g

Molecule: LY2510924
- decrease in affinity to mCXCR4 as compared to hCXCR4 (mCXCR4): > 1000 fold

Molecule: CN1CCCCC1 [N-methylpiperidine]
- pKa [1]: approximately 10.08
